# Test system: SK-MEL-28
# Assay: MTT antiproliferative/cytotoxicity assay, SK-MEL-28
# Assay type: cell-based, human
# Settings: Homo sapiens, SK-MEL-28, 48 h, melanoma, MTT, 48 h; read-out: IC50 SKMEL-28
# Protocol: (§1) Human-derived GFP-expressing melanoma A375 and epidermoid carcinoma A431 cell lines were purchased from Angio-Proteomie (Boston, MA). Human melanoma carcinoma SK-MEL-28 and human immortalised keratinocytes (HaCaT) cell lines were acquired from American Type Culture Collection (ATCC; Manassas, VA). Human cutaneous SCC cell line SCC-12[192] was generously provided by Dr. James G. Rheinwald to Dr. Tatiana Efimova. Except SK-MEL-28, which was cultured in an RPMI-1640 medium supplemented with 5% FBS, all other human immortalised cell lines were grown and maintained in DMEM containing varying percentages of FBS; 5% FBS for A431, SCC-12, and HaCaT lines, and 10% FBS for A375. All culture media were routinely supplemented with 1% PEST 100X (100 U/mL penicillin, 100 μg/mL streptomycin), and cells were cultured in incubators maintained at 37 °C under an atmosphere of 95% humidity, 20% O2, and 5% CO2. The growth media of incubated cells were changed every 2–3 days until they attained 70–80% confluence, after which they were sub-cultured for experiments and re-passaging. DMSO was used as the vehicle to prepare a 10 mM stock solution of the test compounds.
# (§2) Stock solutions (10 mM) were prepared by dissolving each compound to be screened in DMSO. From these stock solutions, escalating concentrations were prepared using the corresponding cell growth media as a diluent, and the cells (65–75% confluent) were treated with (0–40 µM) or without the drug in sext- to octuplicate and incubated for 48 h. All treatment protocols and controls were prepared as previously described.
# (§3) The potency and cytotoxicity of the test compounds against two cutaneous melanoma (A375 and SK-MEL-28) and two non-melanoma (A431 and SCC-12) SC cell lines in addition to a control immortalised normal human epidermal keratinocytes (HaCaT) cell line were assessed by MTT assay as previously described.
row,Structure (SMILES),IC50 [µM]
1,"Cc1onc2c1CCc1ccccc1-2 [P12, 3-Methyl-4,5-dihydronaphtho[1,2-c]isoxazole]",24 ± 2
2,"CCc1c(C)n[nH]c1C [P1, 4-Ethyl-3,5-dimethyl-1H-pyrazole]",42.8 ± 0.3
3,"Cc1c2c(nn1-c1ccccc1)-c1ccccc1CC2 [P9, 3-Methyl-2-phenyl-4,5-dihydro-2H-benzo[g]indazole]",40.8 ± 1
4,O=C1CC(c2ccc(Br)cc2)=NN1c1ccccc1 [P24],54.1 ± 1.9
5,"Cc1cc(-c2ccccc2)no1 [P11, 5-Methyl-3-phenylisoxazole]",34.5 ± 1.2
6,"Cc1cc(-c2ccccc2)n[nH]1 [P3, 5-Methyl-3-phenyl-1H-pyrazole]",59.1 ± 4.6

# Test system: A375
# Assay: MTT antiproliferative/cytotoxicity assay, A375
# Assay type: cell-based, human
# Settings: Homo sapiens, A-375, 48 h, melanoma, MTT, 48 h; read-out: IC50 A375
# Protocol: as §1, §2, §3
row,Structure (SMILES),IC50 [µM]
1,"Cc1onc2c1CCc1ccccc1-2 [P12, 3-Methyl-4,5-dihydronaphtho[1,2-c]isoxazole]",73.5 ± 3.8
2,"CCc1c(C)n[nH]c1C [P1, 4-Ethyl-3,5-dimethyl-1H-pyrazole]",47.7 ± 4.2
3,"Cc1c2c(nn1-c1ccccc1)-c1ccccc1CC2 [P9, 3-Methyl-2-phenyl-4,5-dihydro-2H-benzo[g]indazole]",45.2 ± 2
4,O=C1CC(c2ccc(Br)cc2)=NN1c1ccccc1 [P24],56.4 ± 1.7
5,"Cc1cc(-c2ccccc2)no1 [P11, 5-Methyl-3-phenylisoxazole]",57.8 ± 6.5
6,"Cc1cc(-c2ccccc2)n[nH]1 [P3, 5-Methyl-3-phenyl-1H-pyrazole]",54.8 ± 2.7

# Test system: not listed separately
# Assay: DPPH free radical scavenging assay
# Settings: 1 mM
# Protocol: An initial screen was done of all 25 derivatives at a concentration of 1 mM. […] Methanol was used as the diluent, and 100 µL of DPPH (200 µM; Sigma-Aldrich, St. Louis, MO) was added to each well. […] The scavenging capacity (SC) was calculated as SC% = ((ΔAcontrol – ΔAsample)/ΔAcontrol) × 100%, where ΔAcontrol was the absorbance of the reagent blank, and ΔAsample was the absorbance of the test samples. The control contained all reagents except the compounds, and all tests were performed in triplicate. Quercetin served as a positive control. The DPPH methanolic solution (1 mL) mixed with DMSO (5 µL) served as a negative control.
row,Structure (SMILES),Percent Scavenging (DPPH) [%]
1,"Cc1onc2c1CCc1ccccc1-2 [P12, 3-Methyl-4,5-dihydronaphtho[1,2-c]isoxazole]",-1.13
2,"CCc1c(C)n[nH]c1C [P1, 4-Ethyl-3,5-dimethyl-1H-pyrazole]",5.85
3,"Cc1c2c(nn1-c1ccccc1)-c1ccccc1CC2 [P9, 3-Methyl-2-phenyl-4,5-dihydro-2H-benzo[g]indazole]",5.48
4,O=C1CC(c2ccc(Br)cc2)=NN1c1ccccc1 [P24],75.14
5,"Cc1cc(-c2ccccc2)no1 [P11, 5-Methyl-3-phenylisoxazole]",-27.39
6,"Cc1cc(-c2ccccc2)n[nH]1 [P3, 5-Methyl-3-phenyl-1H-pyrazole]",-0.39

# Same assay, conditions: N.A. = No Activity; > 1000 = not biologically relevant; read-out: IC50 Value, DPPH antioxidant activity (Table S4)
row,Structure (SMILES),IC50 [µM]
1,"CCc1c(C)n[nH]c1C [P1, 4-Ethyl-3,5-dimethyl-1H-pyrazole]",> 1000
2,"Cc1c2c(nn1-c1ccccc1)-c1ccccc1CC2 [P9, 3-Methyl-2-phenyl-4,5-dihydro-2H-benzo[g]indazole]",> 1000
3,O=C1CC(c2ccc(Br)cc2)=NN1c1ccccc1 [P24],444

# Test system: GFP-A431
# Assay: MTT antiproliferative/cytotoxicity assay, A431
# Assay type: cell-based, human
# Settings: not given
# Protocol: (§4) Human-derived GFP-expressing melanoma A375 and epidermoid carcinoma A431 cell lines were purchased from Angio-Proteomie (Boston, MA). Human melanoma carcinoma SK-MEL-28 and human immortalised keratinocytes (HaCaT) cell lines were acquired from American Type Culture Collection (ATCC; Manassas, VA). […] The growth media of incubated cells were changed every 2–3 days until they attained 70–80% confluence, after which they were sub-cultured for experiments and re-passaging. DMSO was used as the vehicle to prepare a 10 mM stock solution of the test compounds.
# (§5) Stock solutions (10 mM) were prepared by dissolving each compound to be screened in DMSO.
row,Structure (SMILES),selectivity index (SI) A431
1,"Cc1cc(-c2ccccc2)n[nH]1 [P3, 5-Methyl-3-phenyl-1H-pyrazole]",27.2 ± 0.9 (1.6)

# Same assay, conditions: Homo sapiens, A-431, 48 h, non-melanoma, MTT, 48 h; read-out: IC50 GFP-A431
row,Structure (SMILES),IC50 [µM]
1,"Cc1onc2c1CCc1ccccc1-2 [P12, 3-Methyl-4,5-dihydronaphtho[1,2-c]isoxazole]",55.5 ± 3.5
2,"CCc1c(C)n[nH]c1C [P1, 4-Ethyl-3,5-dimethyl-1H-pyrazole]",41.6 ± 0.8
3,"Cc1c2c(nn1-c1ccccc1)-c1ccccc1CC2 [P9, 3-Methyl-2-phenyl-4,5-dihydro-2H-benzo[g]indazole]",28 ± 3.6
4,O=C1CC(c2ccc(Br)cc2)=NN1c1ccccc1 [P24],18.6 ± 0.9
5,"Cc1cc(-c2ccccc2)no1 [P11, 5-Methyl-3-phenylisoxazole]",43.7 ± 2.7
6,"Cc1cc(-c2ccccc2)n[nH]1 [P3, 5-Methyl-3-phenyl-1H-pyrazole]",27.2 ± 0.9

# Same assay, conditions: IC50 HaCaT divided by IC50 A431
row,Structure (SMILES),selectivity index (SI) A431
1,"Cc1c2c(nn1-c1ccccc1)-c1ccccc1CC2 [P9, 3-Methyl-2-phenyl-4,5-dihydro-2H-benzo[g]indazole]",1.6
2,O=C1CC(c2ccc(Br)cc2)=NN1c1ccccc1 [P24],3.3
3,"Cc1cc(-c2ccccc2)no1 [P11, 5-Methyl-3-phenylisoxazole]",2.6

# Test system: SCC-12
# Assay: MTT antiproliferative/cytotoxicity assay, SCC-12
# Assay type: cell-based, human
# Settings: not given
# Protocol: as §4, §5
row,Structure (SMILES),selectivity index (SI) SCC-12
1,"Cc1cc(-c2ccccc2)n[nH]1 [P3, 5-Methyl-3-phenyl-1H-pyrazole]",546.5 ± 20.7 (0.1)

# Same assay, conditions: Homo sapiens, SCC12, 48 h, non-melanoma, MTT, 48 h; read-out: IC50 SCC-12
row,Structure (SMILES),IC50 [µM]
1,"Cc1onc2c1CCc1ccccc1-2 [P12, 3-Methyl-4,5-dihydronaphtho[1,2-c]isoxazole]",32.6 ± 2.1
2,"CCc1c(C)n[nH]c1C [P1, 4-Ethyl-3,5-dimethyl-1H-pyrazole]",257 ± 18.4
3,"Cc1c2c(nn1-c1ccccc1)-c1ccccc1CC2 [P9, 3-Methyl-2-phenyl-4,5-dihydro-2H-benzo[g]indazole]",28.8 ± 1.4
4,O=C1CC(c2ccc(Br)cc2)=NN1c1ccccc1 [P24],141 ± 3.9
5,"Cc1cc(-c2ccccc2)no1 [P11, 5-Methyl-3-phenylisoxazole]",44.6 ± 1.3
6,"Cc1cc(-c2ccccc2)n[nH]1 [P3, 5-Methyl-3-phenyl-1H-pyrazole]",546 ± 20.7

# Same assay, conditions: IC50 HaCaT divided by IC50 SCC-12
row,Structure (SMILES),selectivity index (SI) SCC-12
1,"Cc1c2c(nn1-c1ccccc1)-c1ccccc1CC2 [P9, 3-Methyl-2-phenyl-4,5-dihydro-2H-benzo[g]indazole]",1.5
2,O=C1CC(c2ccc(Br)cc2)=NN1c1ccccc1 [P24],0.4
3,"Cc1cc(-c2ccccc2)no1 [P11, 5-Methyl-3-phenylisoxazole]",2.6

# Test system: HaCaT
# Assay: MTT cytotoxicity assay, noncancerous HaCaT keratinocytes
# Assay type: cell-based, human
# Settings: Homo sapiens, HaCaT; control noncancerous keratinocytes, MTT, 48 h; read-out: IC50 HaCaT
# Protocol: as §1, §2, §3
row,Structure (SMILES),IC50 [µM]
1,"Cc1onc2c1CCc1ccccc1-2 [P12, 3-Methyl-4,5-dihydronaphtho[1,2-c]isoxazole]",32.6 ± 2.4
2,"CCc1c(C)n[nH]c1C [P1, 4-Ethyl-3,5-dimethyl-1H-pyrazole]",60.5 ± 3.9
3,"Cc1c2c(nn1-c1ccccc1)-c1ccccc1CC2 [P9, 3-Methyl-2-phenyl-4,5-dihydro-2H-benzo[g]indazole]",43.6 ± 1.4
4,O=C1CC(c2ccc(Br)cc2)=NN1c1ccccc1 [P24],60.4 ± 3.2
5,"Cc1cc(-c2ccccc2)no1 [P11, 5-Methyl-3-phenylisoxazole]",116 ± 10.1
6,"Cc1cc(-c2ccccc2)n[nH]1 [P3, 5-Methyl-3-phenyl-1H-pyrazole]",42.1 ± 3.4

# Target: T1, mushroom tyrosinase (Agaricus bisporus, UniProt C7FF04)
# T1 construct: purchased Sigma-Aldrich Chemical Company (St. Louis, MO) and MP Biomedicals (Irvine, CA)
# Assay: In vitro mushroom tyrosinase inhibition assay
# Assay type: biochemical
# Settings: 500 µM, single-concentration screen; read-out: % Inhibition of tyrosinase
# Protocol: The anti-tyrosinase potential of all the synthesised derivatives was determined by an enzymatic tyrosinase inhibition assay based on their ability to inhibit the substrate, L-tyrosine, from binding to the tyrosinase enzyme. […] Test samples were dissolved in DMSO at a concentration of 10 mM and then diluted to different concentrations with phosphate buffer (0.1 M, pH 6.8). Each well contained 40 µL of the sample with 80 µL of phosphate buffer solution (0.1 M, pH 6.8), 40 µL of tyrosinase enzyme (100 units/mL), and 40 µL L-tyrosine (2.5 mM). The mixture was incubated for 30 min at room temperature, and absorbance was measured at 490 nm. Each sample was accompanied by a sample blank containing all components except tyrosinase. […] The percentage of tyrosinase inhibition was calculated as follows: ((ΔAcontrol – ΔAsample)/ΔAcontrol) × 100. IC50 values denoted the sample concentration required to inhibit 50% tyrosinase activity (Table S1).
# T1 sequence (C7FF04 1-392 limits assumed): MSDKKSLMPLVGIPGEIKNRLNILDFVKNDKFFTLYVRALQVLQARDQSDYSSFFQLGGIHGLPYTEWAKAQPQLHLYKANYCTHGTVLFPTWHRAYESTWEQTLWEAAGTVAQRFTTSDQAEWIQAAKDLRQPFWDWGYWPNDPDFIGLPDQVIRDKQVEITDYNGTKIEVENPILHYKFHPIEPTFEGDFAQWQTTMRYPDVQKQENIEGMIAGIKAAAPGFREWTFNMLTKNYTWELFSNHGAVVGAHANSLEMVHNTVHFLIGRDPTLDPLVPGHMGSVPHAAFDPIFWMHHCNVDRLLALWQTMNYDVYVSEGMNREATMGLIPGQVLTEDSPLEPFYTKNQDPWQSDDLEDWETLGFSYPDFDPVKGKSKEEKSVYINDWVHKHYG
row,Structure (SMILES),inhibition at 500 µM [%]
1,"Cc1onc2c1CCc1ccccc1-2 [P12, 3-Methyl-4,5-dihydronaphtho[1,2-c]isoxazole]",69.7 ± 5
2,"CCc1c(C)n[nH]c1C [P1, 4-Ethyl-3,5-dimethyl-1H-pyrazole]",6.77
3,"Cc1c2c(nn1-c1ccccc1)-c1ccccc1CC2 [P9, 3-Methyl-2-phenyl-4,5-dihydro-2H-benzo[g]indazole]",9.49
4,O=C1CC(c2ccc(Br)cc2)=NN1c1ccccc1 [P24],35.2
5,"Cc1cc(-c2ccccc2)no1 [P11, 5-Methyl-3-phenylisoxazole]",88 ± 0.3
6,"Cc1cc(-c2ccccc2)n[nH]1 [P3, 5-Methyl-3-phenyl-1H-pyrazole]",42.6

# Same assay, conditions: > 500 = not biologically relevant; read-out: IC50 Value, mushroom tyrosinase inhibition (Table S1)
row,Structure (SMILES),IC50 [µM]
1,"Cc1onc2c1CCc1ccccc1-2 [P12, 3-Methyl-4,5-dihydronaphtho[1,2-c]isoxazole]",336
2,"CCc1c(C)n[nH]c1C [P1, 4-Ethyl-3,5-dimethyl-1H-pyrazole]",> 500
3,"Cc1c2c(nn1-c1ccccc1)-c1ccccc1CC2 [P9, 3-Methyl-2-phenyl-4,5-dihydro-2H-benzo[g]indazole]",> 500
4,O=C1CC(c2ccc(Br)cc2)=NN1c1ccccc1 [P24],> 500
5,"Cc1cc(-c2ccccc2)no1 [P11, 5-Methyl-3-phenylisoxazole]",173
6,"Cc1cc(-c2ccccc2)n[nH]1 [P3, 5-Methyl-3-phenyl-1H-pyrazole]",> 500
